From ChEMBL document CHEMBL3865804, “A Gestalt approach to Gram-negative entry” (2016)
In brackets after ≈: the same amount, converted by molar mass.

Legend:
Format in all cases: functional
Haemophilus influenzae = assay: Antibacterial activity against Haemophilus influenzae MB5363 by broth microdilution technique
Enterococcus faecalis = assay: Antibacterial activity against Enterococcus faecalis MB5407 by broth microdilution technique
Escherichia coli = assay: Antibacterial activity against Escherichia coli MB2884 by broth microdilution technique
Klebsiella pneumoniae = assay: Antibacterial activity against Klebsiella pneumoniae MB4005 by broth microdilution technique
Streptococcus pneumoniae = assay: Antibacterial activity against Streptococcus pneumoniae CL2883 by broth microdilution technique
Staphylococcus aureus = assay: Antibacterial activity against Staphylococcus aureus MB2865 by broth microdilution technique

Row | SMILES | MIC (Haemophilus influenzae) | MIC (Enterococcus faecalis) | MIC (Escherichia coli) | MIC (Klebsiella pneumoniae) | MIC (Streptococcus pneumoniae) | MIC (Staphylococcus aureus)
1 | CC[C@H]1OC(=O)[C@H](C)[C@@H](O[C@H]2C[C@@](C)(OC)[C@@H](O)[C@H](C)O2)[C@H](C)[C@@H](O[C@@H]2O[C@H](C)C[C@H](N(C)C)[C@H]2O)[C@](C)(O)C[C@@H](C)CN(C)[C@H](C)[C@@H](O)[C@]1(C)O [AZITHROMYCIN] | 0.5 µg/mL (≈ 0.668 µM) | 4 µg/mL (≈ 5.34 µM) | 1 µg/mL (≈ 1.34 µM) | 2 µg/mL (≈ 2.67 µM) | 0.03 µg/mL (≈ 0.0401 µM) | 1 µg/mL (≈ 1.34 µM)
2 | CC[C@H]1OC(=O)[C@H](C)[C@@H](O[C@H]2C[C@@](C)(OC)[C@@H](O)[C@H](C)O2)[C@H](C)[C@@H](O[C@@H]2O[C@H](C)C[C@H](N(C)C)[C@H]2O)[C@](C)(O)C[C@@H](C)C(=O)[C@H](C)[C@@H](O)[C@]1(C)O [ERYTHROMYCIN] | 2 µg/mL (≈ 2.73 µM) | 1 µg/mL (≈ 1.36 µM) | 32 µg/mL (≈ 43.6 µM) | 32 µg/mL (≈ 43.6 µM) | 0.02 µg/mL (≈ 0.0273 µM) | 0.25 µg/mL (≈ 0.341 µM)
3 | CC[C@H]1OC(=O)[C@H](C)[C@@H](O[C@H]2C[C@@](C)(OC)[C@@H](O)[C@H](C)O2)[C@H](C)[C@@H](O[C@@H]2O[C@H](C)C[C@H](N(C)C)[C@H]2O)[C@](C)(O)C[C@@H](C)N(C)C[C@H](C)[C@@H](O)[C@]1(C)O [L-701677] | 1 µg/mL (≈ 1.34 µM) | 2 µg/mL (≈ 2.67 µM) | 1 µg/mL (≈ 1.34 µM) | 1 µg/mL (≈ 1.34 µM) | 0.03 µg/mL (≈ 0.0401 µM) | 0.5 µg/mL (≈ 0.668 µM)
4 | CC[C@H]1OC(=O)[C@H](C)[C@@H](O[C@H]2C[C@@](C)(OC)[C@@H](N)[C@H](C)O2)[C@H](C)[C@@H](O[C@@H]2O[C@H](C)C[C@H](N(C)C)[C@H]2O)[C@](C)(O)C[C@@H](C)N(C)C[C@H](C)[C@@H](O)[C@]1(C)O | 0.25 µg/mL (≈ 0.334 µM) | 2 µg/mL (≈ 2.67 µM) | 0.13 µg/mL (≈ 0.174 µM) | 0.13 µg/mL (≈ 0.174 µM) | ≤ 0.06 µg/mL | 1 µg/mL (≈ 1.34 µM)
